Increase data for 4 molecules are collected here from ChEMBL document CHEMBL1126234, “Rigid analogs of acetylcholine can be m1-selective agonists: implications for a rational treatment strategy in Alzheimer's disease” (Bioorg Med Chem Lett, 1992).

Substitutions are numbered along the chain they refer to.

What all share (assay type): functional, cell-based
For experiment [1], the target named is T1, Muscarinic acetylcholine receptor M4 (Homo sapiens) (UniProt P08173).
T1 sequence (whole entry): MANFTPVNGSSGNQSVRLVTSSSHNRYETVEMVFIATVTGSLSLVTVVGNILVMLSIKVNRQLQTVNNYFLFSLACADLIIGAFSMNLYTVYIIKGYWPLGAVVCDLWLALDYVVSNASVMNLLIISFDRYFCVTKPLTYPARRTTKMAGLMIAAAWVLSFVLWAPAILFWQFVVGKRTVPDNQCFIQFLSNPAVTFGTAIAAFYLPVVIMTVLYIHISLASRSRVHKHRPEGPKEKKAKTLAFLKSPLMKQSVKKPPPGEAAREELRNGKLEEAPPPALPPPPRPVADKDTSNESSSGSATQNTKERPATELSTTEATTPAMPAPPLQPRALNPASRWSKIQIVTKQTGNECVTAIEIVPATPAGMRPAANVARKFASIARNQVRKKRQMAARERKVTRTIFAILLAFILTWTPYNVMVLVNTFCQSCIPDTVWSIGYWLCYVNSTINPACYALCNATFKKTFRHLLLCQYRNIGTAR
In words: Percent increase in intracellular calcium ion concentration ([Ca2+]i) using CHO cells, stably transfected with human muscarinic m4 acetylcholine receptor (AChR).

The target of experiment [2] is T2, Muscarinic acetylcholine receptor M5 (Homo sapiens) (UniProt P08912).
T2 sequence (whole entry): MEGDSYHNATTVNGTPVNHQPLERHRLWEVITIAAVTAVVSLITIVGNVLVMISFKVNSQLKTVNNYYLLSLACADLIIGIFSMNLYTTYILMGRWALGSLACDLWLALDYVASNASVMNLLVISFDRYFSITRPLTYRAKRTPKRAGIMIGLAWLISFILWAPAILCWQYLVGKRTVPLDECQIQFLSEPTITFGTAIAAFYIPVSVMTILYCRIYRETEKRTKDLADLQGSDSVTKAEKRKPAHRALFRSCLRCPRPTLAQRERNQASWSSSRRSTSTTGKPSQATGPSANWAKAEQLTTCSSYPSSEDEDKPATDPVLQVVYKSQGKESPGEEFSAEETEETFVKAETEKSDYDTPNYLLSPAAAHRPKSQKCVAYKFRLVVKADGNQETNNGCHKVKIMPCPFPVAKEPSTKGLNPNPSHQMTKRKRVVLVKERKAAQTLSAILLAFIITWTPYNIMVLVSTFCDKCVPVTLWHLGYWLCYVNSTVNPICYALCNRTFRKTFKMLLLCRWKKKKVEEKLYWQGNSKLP
In words: Percent increase in intracellular calcium ions concentration ([Ca2+]i) using CHO cells, stably transfected with human muscarinic m5 acetylcholine receptor (AChR).

The target in experiment [3] is T3, Muscarinic acetylcholine receptor M2 (Homo sapiens) (UniProt P08172).
T3 sequence (whole entry): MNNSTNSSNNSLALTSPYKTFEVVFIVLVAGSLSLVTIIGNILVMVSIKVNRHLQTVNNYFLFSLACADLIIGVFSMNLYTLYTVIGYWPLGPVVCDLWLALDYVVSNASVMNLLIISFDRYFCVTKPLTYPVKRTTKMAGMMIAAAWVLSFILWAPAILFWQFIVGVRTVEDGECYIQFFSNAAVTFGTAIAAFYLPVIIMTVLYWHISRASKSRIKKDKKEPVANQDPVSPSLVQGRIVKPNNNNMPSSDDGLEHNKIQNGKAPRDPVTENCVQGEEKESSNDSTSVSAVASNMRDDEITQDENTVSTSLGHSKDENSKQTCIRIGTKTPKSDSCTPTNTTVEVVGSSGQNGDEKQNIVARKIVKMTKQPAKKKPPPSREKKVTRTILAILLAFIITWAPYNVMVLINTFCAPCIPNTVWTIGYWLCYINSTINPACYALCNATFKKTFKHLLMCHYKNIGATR
In words: Percent increase in intracellular calcium ions concentration ([Ca2+]i) using CHO cells, stably transfected with human muscarinic m2 acetylcholine receptor (AChR).

In experiment [4] the target is T3, Muscarinic acetylcholine receptor M2 (Homo sapiens). Description: Percent increase in forskolin-stimulated cAMP accumulation using CHO cells, transfected with human muscarinic m2 acetylcholine receptor (AChR).
Experiment [5] concerns the target T4, Muscarinic acetylcholine receptor M1 (Rattus norvegicus) (UniProt P08482).
T4 sequence (whole entry): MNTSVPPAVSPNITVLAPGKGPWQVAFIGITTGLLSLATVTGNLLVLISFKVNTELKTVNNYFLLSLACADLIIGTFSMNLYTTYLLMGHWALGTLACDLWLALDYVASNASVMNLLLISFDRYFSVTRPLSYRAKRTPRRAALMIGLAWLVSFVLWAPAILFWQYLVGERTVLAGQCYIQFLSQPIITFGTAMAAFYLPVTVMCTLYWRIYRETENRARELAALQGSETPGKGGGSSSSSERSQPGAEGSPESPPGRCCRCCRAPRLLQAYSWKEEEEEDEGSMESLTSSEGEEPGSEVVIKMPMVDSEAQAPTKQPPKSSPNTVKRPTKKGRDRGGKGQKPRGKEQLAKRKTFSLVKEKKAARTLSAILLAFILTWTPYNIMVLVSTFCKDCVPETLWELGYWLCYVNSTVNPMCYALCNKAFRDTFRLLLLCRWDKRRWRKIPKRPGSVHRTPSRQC
In words: Percent increase in Arachidonic acid (AA) release using CHO cells, transfected with rat muscarinic m1 acetylcholine receptor (AChR).

Experiment [6] has as its target Muscarinic acetylcholine receptor M3 (Homo sapiens) (UniProt P20309). In words: Percent increase in forskolin-stimulated cAMP accumulation using CHO cells, stably transfected with human muscarinic m3 acetylcholine receptor (AChR).
Experiment [7] addresses T5, Muscarinic acetylcholine receptor M1 (Homo sapiens) (UniProt P11229).
T5 sequence (whole entry): T4 sequence (whole entry) with V5A, S254T, S309P, K320R, G337A, V413I
Description: Percent increase in intracellular calcium ions concentration ([Ca2+]i) using CHO cells, stably transfected with human muscarinic m1 acetylcholine receptor (AChR).

For experiment [8], the target named is Muscarinic acetylcholine receptor M3 (Homo sapiens) (UniProt P20309). In words: Percent increase in phosphoinositides (PI) hydrolysis using CHO cells, stably transfected with human muscarinic m3 acetylcholine receptor (AChR).
Experiment [9] has as its target T2, Muscarinic acetylcholine receptor M5 (Homo sapiens). In words: Percent increase in phosphoinositides (PI) hydrolysis using CHO cells, stably transfected with human muscarinic m5 acetylcholine receptor (AChR).
In experiment [10] the target is Muscarinic acetylcholine receptor M3 (Rattus norvegicus) (UniProt P08483). In words: Percent increase in Arachidonic acid (AA) release using CHO cells, stably transfected with rat muscarinic m3 acetylcholine receptor (AChR).
Experiment [11] deals with Muscarinic acetylcholine receptor M3 (Homo sapiens) (UniProt P20309). In words: Percent increase in intracellular calcium ion concentration ([Ca2+]i) using CHO cells, stably transfected with human muscarinic m3 acetylcholine receptor (AChR).
In experiment [12] the target is T5, Muscarinic acetylcholine receptor M1 (Homo sapiens). Description: Percent increase in phosphoinositides (PI) hydrolysis using chinese hamster ovary (CHO) cells, stably transfected with human muscarinic m1 acetylcholine receptor (AChR).
Experiment [13] shares this target. Description: Percent increase in Arachidonic acid (AA) release using CHO cells, transfected with human muscarinic m1 acetylcholine receptor (AChR).
For experiment [14], the target named is Muscarinic acetylcholine receptor M3 (Homo sapiens) (UniProt P20309). In words: Percent increase in Arachidonic acid (AA) release using CHO cells, stably transfected with human muscarinic m3 acetylcholine receptor (AChR).
The target of experiment [15] is T2, Muscarinic acetylcholine receptor M5 (Homo sapiens). In words: Percent increase in Arachidonic acid (AA) release using CHO cells, stably transfected with human muscarinic m5 acetylcholine receptor (AChR).
Experiment [16] addresses T5, Muscarinic acetylcholine receptor M1 (Homo sapiens). Description: Percent increase in forskolin-stimulated cAMP accumulation using CHO cells, stably transfected with human muscarinic m1 acetylcholine receptor (AChR).

Sequence of Muscarinic acetylcholine receptor M3 (Homo sapiens) (P20309 whole entry, looked up): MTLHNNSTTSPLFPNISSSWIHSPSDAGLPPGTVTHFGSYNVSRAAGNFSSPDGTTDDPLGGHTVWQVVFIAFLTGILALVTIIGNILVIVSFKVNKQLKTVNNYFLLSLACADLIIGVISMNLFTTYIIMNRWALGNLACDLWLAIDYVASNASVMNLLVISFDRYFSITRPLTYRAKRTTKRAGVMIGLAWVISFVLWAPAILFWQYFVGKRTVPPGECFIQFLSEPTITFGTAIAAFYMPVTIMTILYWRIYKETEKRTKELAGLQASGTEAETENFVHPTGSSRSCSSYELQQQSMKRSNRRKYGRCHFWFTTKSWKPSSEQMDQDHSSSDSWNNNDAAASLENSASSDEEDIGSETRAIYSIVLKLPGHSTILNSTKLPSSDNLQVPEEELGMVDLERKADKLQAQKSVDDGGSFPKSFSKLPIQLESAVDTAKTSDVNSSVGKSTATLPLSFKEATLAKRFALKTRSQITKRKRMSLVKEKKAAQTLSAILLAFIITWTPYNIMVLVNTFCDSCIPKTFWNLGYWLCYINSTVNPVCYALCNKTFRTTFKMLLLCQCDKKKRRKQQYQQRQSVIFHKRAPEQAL
Sequence of Muscarinic acetylcholine receptor M3 (Rattus norvegicus) (P08483 whole entry, looked up): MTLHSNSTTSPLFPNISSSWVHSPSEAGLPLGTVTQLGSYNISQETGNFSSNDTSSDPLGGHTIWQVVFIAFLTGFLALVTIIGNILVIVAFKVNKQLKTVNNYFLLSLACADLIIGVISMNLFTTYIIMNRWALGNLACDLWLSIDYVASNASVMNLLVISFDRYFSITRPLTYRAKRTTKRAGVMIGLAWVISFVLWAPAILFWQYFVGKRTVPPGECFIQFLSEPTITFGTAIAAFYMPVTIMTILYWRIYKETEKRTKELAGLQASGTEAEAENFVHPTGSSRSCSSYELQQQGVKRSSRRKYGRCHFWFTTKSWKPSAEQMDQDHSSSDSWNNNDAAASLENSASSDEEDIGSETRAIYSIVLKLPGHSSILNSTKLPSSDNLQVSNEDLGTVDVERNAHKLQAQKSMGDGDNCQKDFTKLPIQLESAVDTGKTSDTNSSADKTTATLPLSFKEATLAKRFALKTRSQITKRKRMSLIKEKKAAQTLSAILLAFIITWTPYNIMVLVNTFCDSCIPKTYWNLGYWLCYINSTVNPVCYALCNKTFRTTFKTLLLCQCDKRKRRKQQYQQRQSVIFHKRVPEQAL

As for `CC1=NC2(CCN(C)CC2)CO1`, the Increase in experiment [1] was 10%; in [2] it was 80%; in experiment [3], 9%; in experiment [4], 70%; in experiment [5] it was 61%; in [6], 4%. For the same molecule, the Increase was 85% in [7]; 84% in experiment [8]; 79% in [9]; 36% in experiment [10]; 132% in experiment [11]; 102% in experiment [12]. In addition, the Increase in experiment [13] was found to be 3%.
As to `C[C@@H]1OC2(CS1)CN1CCC2CC1` (some centres undefined), the Increase in experiment [14] is 11%; in [1] it was 3%; in [2], 32%; in [15], 4%; in experiment [3], 17%; in experiment [4], 60%. Also, the Increase in [6] was 0.8%; in experiment [7] it was 79%; in experiment [8] it was 10%; in [9] it was 4%; in experiment [16] it was 1%; in experiment [11], 86%. The Increase in experiment [12] worked out at 43%; in [13], 68%.
As for `C[N+](C)(C)CC#CCOC(=O)Nc1cccc(Cl)c1`, the Increase was found to be 13% in experiment [14]; 34% in experiment [15]; 9.5% in experiment [4]; 7% in experiment [6]; 7% in experiment [8]; 24% in experiment [9]. For the same molecule, the Increase in [16] came to 7%; in experiment [12] it was 89%; in experiment [13], 90%.
`CC1=NCC2(CCN(C)CC2)O1`: the Increase in experiment [1] worked out at 10%; in experiment [2] it was 78%; in experiment [3], 12%; in [4], 74%; in experiment [5] it was 90%; in experiment [6], 10%. The Increase worked out at 60% in experiment [7]; 76% in experiment [8]; 28% in [9]; 6% in experiment [16]; 27% in experiment [10]; 130% in experiment [11]. The molecule further showed an Increase in [12] of 85%.
